We go through 1 compound from patent EP0341661A2, “Peptide-drug compositions containing alpha-aminoboronic acid derivatives” (THE DU PONT MERCK PHARMACEUTICAL COMPANY, priority 1988, dated 1989).

Molecules are shown by their SMILES. Where a name gives a salt, the structure may show the parent alone.

In experiment [1] the test system is aminopeptidases. The experiment can be described thus: In situ nasal perfusion: disappearance of 35 µM LH-RH (fragment 3-10) in the nasal perfusate. The format is in vivo, Sprague-Dawley rats. The settings on record: 0.465 µM Boroleucine. As to the method: (§1) The method involved the use of Sprague-Dawley rats weighing approximately 300 grams. Each rat was anesthetized with sodium pentobarbitol (50 mg/kg). An incision was made in the neck and the trachea was canulated with PE 240 tubing. For the in situ studies, a second tube, which served to introduce the perfusing solution, was inserted through the esophagus to the posterior part of the nasal cavity. The nasopalatine was closed with an adhesive to prevent drainage of the perfusing solution from the nasal to the oral cavity. For the in vivo in situ studies, the esophagus was canulated using PE 240 tubing closed at one end. The closed end was pushed to the posterior end of the nasal passage and then tied in place. The nasopalatine was closed with an adhesive to prevent drainage of the perfusing solution from the nasal to the oral cavity. The rats were dosed in one nostril with 50 µl of peptide solution in two forms; the control solution had no inhibitor added, the test solution had inhibitor added at concentrations specified in the examples shown below. The dosing solution was 0.1 M phosphate buffer (pH 7.4). At certain time intervals (one rat/time interval), the drug was washed from the nose via the other nostril with 10 ml of 0.1 M phosphate buffer (pH 3.8) using a peristaltic pump. The nasal washing was then placed in a 10 ml volumetric flask and adjusted to 10 ml with the same buffer and analyzed for the peptide by HPLC.
(§2) The analysis of leucine enkephalin and its major metabolite involved taking aliquots of samples, diluting them with 200 µl of 0.1 M citric acid (pH 2.3) to quench hydrolysis and subjecting the samples to analysis (for in vivo in situ studies, the washings were injected as they were obtained). High Pressure Liquid Chromatography (HPLC) was run on a 4.6 x 250 mm C₈ column. The mobile phase consisted of 0.1 M NaH₂PO₄-H₃PO₄-acetonitrile (916 : 5 : 275) and was delivered at a flow rate of 1.7 ml/min. Detection was by UV at 210 nm. Retention times for leucine enkephalin and its major degradation product, Des-Tyr-leucine enkephalin were 7.3 and 4.8 min., respectively. Data were calculated as % of leucine enkephalin remaining in the nasal perfusate as a function of time, counting the concentration at zero time as 100%.
(§3) A 10 ml portion of the peptide solution was placed in a water-jacketed container, maintained at 37°C and circulated through the nasal cavity of rats using a peristaltic pump. The perfusing solution was passed through the nasal cavity, out the nostrils, through a funnel, and returned to the water-jacketed container. The perfusate was analyzed by the ANALYTICAL METHOD described above.
In this example, a 0.1 M phosphate buffer solution (pH 7.4) containing 35 µM LH-RH (fragment 3-10) in the absence of inhibitor and in the presence of the inhibitor, boroleucine at a concentration of 0.46 µM was administered to rats as described in Example 1. The perfusate was analyzed by HPLC as described in Example 1 with the exception of the mobile phase used. The mobile phase was comprised of 0.1 M NaH₂PO₄:H₃PO₄:CH₃CN(916:5:240) delivered at 1.7 ml/min and analyzed by UV at 210 nm.

Experiment [2] relates to aminopeptidases. The experiment can be described thus: In situ nasal perfusion: disappearance of 100 µM Tyr-Phe-Met-Arg-Phe-NH₂ in the nasal perfusate. The format is in vivo, Sprague-Dawley rats. The settings on record: 100 µM peptide, 2 µM Boroleucine. As to the method:
as §1, §2, §3
In this example, a 0.1 M phosphate buffer solution (pH 7.4) containing 100 µM Tyr-Phe-Met-Arg-Phe-NH₂ was administered nasally to rats as described in Example 1. The peptide was administered in the absence of inhibitor and in the presence of 2 µM boroleucine. The perfusate was analyzed by HPLC using the procedure described in Example 1 with the exception that the mobile phase was comprised of 0.1 M NaH₂PO₄:H₃PO₄:CH₃CN (200:1:60) delivered at 1.4 ml/min. Detection was by UV at 210 nm.

Setting [3] is: 120 min, listed as Boroleucine, trifluoroacetic acid salt.
[4] abbreviates: 120 min, trifluoroacetic acid salt.

Take `CC(C)CC(N)B1OC(C)(C)C(C)(C)O1` (stereo not shown) [boroleucine, 3-methyl-1(4,4,5,5-tetramethyl-1,3,2-dioxaborolane-2-yl)-1-butamine, trifluoroacetic acid salt]: the “LH-RH (fragment 3-10) remaining in the nasal perfusate” value came out at 100.0% with aminopeptidases [1] (0 min); 96.7% in the experiment on aminopeptidases [1] (5 min); 97.5% in the experiment with aminopeptidases [1] (10 min); 95.5% in the experiment on aminopeptidases [1] (20 min); 96.5% with aminopeptidases [1] (30 min); 95.8% with aminopeptidases [1] (45 min). Further, the “LH-RH (fragment 3-10) remaining in the nasal perfusate” value with aminopeptidases [1] (60 min) was 91.9%; with aminopeptidases [1] (90 min), 92.9%; in the experiment with aminopeptidases [1] (setting [3]), 86.4%; in the experiment on aminopeptidases [1] (setting [4]), “about 86%”. For the same compound, the “Tyr-Phe-Met-Arg-Phe-NH₂ remaining intact in the nasal perfusate” value with aminopeptidases [2] (0 min) is listed as 100.0%; with aminopeptidases [2] (5 min), 93.8%; with aminopeptidases [2] (20 min), 84.3%; with aminopeptidases [2] (30 min) it was 78.8%; with aminopeptidases [2] (45 min), 70.5%; in the experiment on aminopeptidases [2] (60 min) it was 63.3%. Besides, the “Tyr-Phe-Met-Arg-Phe-NH₂ remaining intact in the nasal perfusate” value with aminopeptidases [2] (90 min) is given as 49.5%; in the experiment with aminopeptidases [2] (setting [3]), 32.9%; in the experiment on aminopeptidases [2] (setting [4]) it was 33%.
